Results taken from PMC10746112, “Synthesis and Pro-Apoptotic Effects of Nitrovinylanthracenes and Related Compounds in Chronic Lymphocytic Leukaemia (CLL) and Burkitt’s Lymphoma (BL)” (Molecules, 2023).
pIC50: −log10 of the molar value. Like-named read-outs stand apart in the source and are kept apart here.

Tests used:
[1] = test system: DG-75 Burkitt’s lymphoma cell line; conditions: read-out: IC50 DG-75; previous work; cited from earlier work
PGA-1 CLL cells = test: Annexin V/PI apoptotic assay (FACS); format: cell-based; conditions: 48 h
Procedure: (§1) The pro-apoptotic effects of the selected nitrovinylanthracene compounds 19a, 19g, 19i, 19l and 19m after 48 h were next determined using FITC (fluorescein isothiocyanate), Annexin V/PI (propidium iodide) staining and FACS (fluorescence-activated cell sorting) analysis to characterize the mode of cellular death induced. […] The CLL cells PGA1 and HG3 (1 × 10^6 cells/mL) were treated at 37 °C with either vehicle (1% (v/v) DMSO) or the nitrostyrene compounds 19a (10 μM, 5 μM and 1 μM) and 19g, 19i, 19l and 19m (10 μM and 1 μM) for 48 h. The cells were then harvested by centrifugation at 400× g in a temperature-controlled Sorvall centrifuge and rinsed with 0.5 mL of Ca^2+ Annexin-V-binding buffer (0.1 M HEPES, pH 7.4; 0.14 M NaCl; 25 mM CaCl2). The samples were resuspended in 50 µL FITC Annexin V (diluted 1:33 in Ca^2+ Annexin V-binding buffer), incubated on ice for 10 min (protected from light), washed with Annexin-V-binding buffer and re-suspended in 500 µL of propidium iodide (PI) solution (0.5 µg/mL). The samples were analysed within 1 h using a BD Accuri C6 flow cytometer counting 10,000 cells and analysed using the FlowJo software (FlowJo LLC, Ashland, OR, USA) package.

HG-3 CLL cells = test: Annexin V/PI apoptotic assay (FACS); format: cell-based; conditions: 48 h
Procedure: as §1

[2] = test system: MUTU-I Burkitt’s lymphoma cell line; conditions: read-out: IC50 MUTU-I; previous work; cited from earlier work
[3] = test system: MDA-MB-231 human breast cancer cells; test: alamarBlue cell viability assay; format: cell-based; conditions: eight concentrations 0.001–50 μM
HG-3 CLL cell line = test: alamarBlue cell viability assay; conditions: 24 h
[4] = test system: DG-75 Burkitt’s lymphoma cell line; test: alamarBlue cell viability assay; conditions: Homo sapiens
[5] = test system: MCF-7 human breast cancer cells; test: alamarBlue cell viability assay; conditions: MCF7, read-out: MCF-7 IC50
PGA-1 CLL cell line = test: alamarBlue cell viability assay; conditions: CLL cell, 24 h
[6] = test system: MUTU-I Burkitt’s lymphoma cell line; test: alamarBlue cell viability assay; conditions: MUTU-I

**Q.** With `O=[N+]([O-])/C=C/c1c2ccccc2cc2ccccc12` [Compound 19a, (E)-9-(2-nitrovinyl)anthracene] as the compound, how does the pIC50 [1] read?
**A.** 5.82

**Q.** What about the total apoptosis (PGA-1 CLL cells; PGA-1, 1 μM) of the same compound?
**A.** 40%

**Q.** What about the total apoptosis (PGA-1 CLL cells; PGA-1, 5 μM) of the same compound?
**A.** 67%

**Q.** And the total apoptosis (PGA-1 CLL cells; PGA-1, 10 μM)?
**A.** 94%

**Q.** What about the total apoptosis (HG-3 CLL cells; HG-3, 1 μM) of the same compound?
**A.** 21%

**Q.** What about the total apoptosis (HG-3 CLL cells; HG-3, 5 μM) of the same compound?
**A.** 69%

**Q.** And the total apoptosis (HG-3 CLL cells; HG-3, 10 μM)?
**A.** 93%

**Q.** And the pIC50 [2]?
**A.** 5.52

**Q.** And the pIC50 [3]?
**A.** 5.42

**Q.** What about the viability at 10 µM (HG-3 CLL cell line; CLL cell, read-out: % Viability HG-3, 10 µM, 24 h) of the same compound?
**A.** 8%

**Q.** And the pIC50 (HG-3 CLL cell line; CLL cell, read-out: HG-3 IC50, 24 h)?
**A.** 5.62

**Q.** What about the pIC50 (HG-3 CLL cell line; read-out: HG-3 IC50) of the same compound?
**A.** 5.61

**Q.** What about the viability at 1 µM ([4]; DG-75, 48 h, read-out: % Viable Cells Remaining DG-75, 1 µM, 48 h) of the same compound?
**A.** 94.6%

**Q.** What about the viability at 10 µM ([4]; DG-75, 48 h, read-out: % Viable Cells Remaining DG-75, 10 µM, 48 h) of the same compound?
**A.** 14%

**Q.** What about the pIC50 ([4]; DG-75, read-out: IC50 DG-75) of the same compound?
**A.** 5.68

**Q.** And the pIC50 [5]?
**A.** 5.73

**Q.** And the viability at 10 µM (PGA-1 CLL cell line; read-out: % Viability PGA-1, 10 µM, 24 h)?
**A.** 5.1%

**Q.** What about the pIC50 (PGA-1 CLL cell line; read-out: PGA-1 IC50, 24 h) of the same compound?
**A.** 5.51

**Q.** And the viability at 1 µM ([6]; 24 h, read-out: % Viable Cells Remaining MUTU-1, 1 µM, 24 h)?
**A.** 82.5%

**Q.** And the viability at 10 µM ([6]; 24 h, read-out: % Viable Cells Remaining MUTU-1, 10 µM, 24 h)?
**A.** 5.91%

**Q.** What about the pIC50 ([6]; read-out: IC50 MUTU-I) of the same compound?
**A.** 5.59
